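1) Cells in 96-well plates. 2) Compound, 48 h, 5 concentrations. 3) Linear interpolation between surrounding doses. 4) Unreached endpoint = highest concentration. GI50 marks 50% less growth.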 Calls of active or inactive are those of the source. Rule as the data show it: active = GI50 up to about 1.1 µM and inactive = higher.
Columns and labels:
Assay in all cases: growth of human tumour cells (NCI), 48 h
M14 = test system: M14
TK-10 = test system: TK-10
SW-620 = test system: SW-620
NCI-H460 = test system: NCI-H460
MDA-MB-435 = test system: MDA-MB-435
ACHN = test system: ACHN
HOP-62 = test system: HOP-62
RPMI-8226 = test system: RPMI-8226
SF-539 = test system: SF-539
EKVX = test system: EKVX
SK-MEL-2 = test system: SK-MEL-2
UO-31 = test system: UO-31
A498 = test system: A498
HL-60 = test system: HL-60
PC-3 = test system: PC-3
HCT-116 = test system: HCT-116
CAKI-1 = test system: CAKI-1
MDA-MB-231 = test system: MDA-MB-231
KM12 = test system: KM12
BT-549 = test system: BT-549

Compound	GI50 (M14)	GI50 (TK-10)	GI50 (SW-620)	GI50 (NCI-H460)	GI50 (MDA-MB-435)	GI50 (ACHN)	GI50 (HOP-62)	GI50 (RPMI-8226)	GI50 (SF-539)	GI50 (EKVX)	GI50 (SK-MEL-2)	GI50 (UO-31)	GI50 (A498)	GI50 (HL-60)	GI50 (PC-3)	GI50 (HCT-116)	GI50 (CAKI-1)	GI50 (MDA-MB-231)	GI50 (KM12)	GI50 (BT-549)
Nc1cc2c3c(cccc3c1)NC2=O	34.6 µM (inactive)	> 100 µM (inactive)	82.4 µM (inactive)	8.39 µM (inactive)	> 100 µM (inactive)	25.1 µM (inactive)	22.1 µM (inactive)	> 100 µM (inactive)	80.7 µM (inactive)	20.9 µM (inactive)	> 100 µM (inactive)	21.2 µM (inactive)	> 100 µM (inactive)	> 100 µM (inactive)	> 100 µM (inactive)	> 100 µM (inactive)	24.6 µM (inactive)	70.3 µM (inactive)	> 100 µM (inactive)	
O=C(CCCn1ccnc1[N+](=O)[O-])NCCn1cnc([N+](=O)[O-])n1	> 100 µM (inactive)	> 100 µM (inactive)	> 100 µM (inactive)	> 100 µM (inactive)	> 100 µM (inactive)	> 100 µM (inactive)	> 100 µM (inactive)	> 100 µM (inactive)	> 100 µM (inactive)		> 100 µM (inactive)	> 100 µM (inactive)	> 100 µM (inactive)	> 100 µM (inactive)	> 100 µM (inactive)	> 100 µM (inactive)	> 100 µM (inactive)		> 100 µM (inactive)	> 100 µM (inactive)
CC1(C)c2ccccc2N2C(c3ccccc3)=NOC21C (stereo not drawn)	> 100 µM (inactive)	> 100 µM (inactive)	> 100 µM (inactive)	> 100 µM (inactive)		> 100 µM (inactive)	> 100 µM (inactive)	> 100 µM (inactive)	> 100 µM (inactive)	> 100 µM (inactive)	> 100 µM (inactive)	> 100 µM (inactive)	> 100 µM (inactive)	> 100 µM (inactive)		> 100 µM (inactive)	> 100 µM (inactive)		> 100 µM (inactive)	
CC(C)[C@@H]1CC[C@@H](C)C[C@H]1OC(=O)/C=C1/C2C=CC(O2)C1C(=O)O[C@@H]1C[C@H](C)CC[C@H]1C(C)C (stereo partly drawn)	> 100 µM (inactive)	> 100 µM (inactive)	> 100 µM (inactive)	89.1 µM (inactive)	> 100 µM (inactive)	> 100 µM (inactive)	> 100 µM (inactive)	> 100 µM (inactive)	> 100 µM (inactive)	> 100 µM (inactive)		> 100 µM (inactive)	> 100 µM (inactive)	30.5 µM (inactive)	56 µM (inactive)	> 100 µM (inactive)	> 100 µM (inactive)	> 100 µM (inactive)	> 100 µM (inactive)	
CC(C)N(CCn1c2c3ccccc3ccc2c2oc(=O)c3ccccc3c21)C(C)C	> 100 µM (inactive)	> 100 µM (inactive)	> 100 µM (inactive)	> 100 µM (inactive)		> 100 µM (inactive)	> 23.1 µM (inactive)	> 100 µM (inactive)	> 43.3 µM (inactive)	> 100 µM (inactive)	> 100 µM (inactive)	> 100 µM (inactive)	> 100 µM (inactive)	> 100 µM (inactive)		> 100 µM (inactive)	> 100 µM (inactive)		> 100 µM (inactive)	
C=C1C(O)C[C@H](OC(C)=O)[C@]2(C)C1C(OC(C)=O)[C@]1(C(C)(C)O)CC(O)C(C)=C1[C@@H](OC(=O)c1ccccc1)C2OC(C)=O (stereo partly drawn)	> 10 µM (inactive)	> 10 µM (inactive)	> 10 µM (inactive)	> 10 µM (inactive)	> 10 µM (inactive)	> 10 µM (inactive)		> 10 µM (inactive)	> 10 µM (inactive)	> 10 µM (inactive)	> 10 µM (inactive)	> 10 µM (inactive)	> 10 µM (inactive)	> 10 µM (inactive)	> 10 µM (inactive)	> 10 µM (inactive)	> 10 µM (inactive)	> 10 µM (inactive)	> 10 µM (inactive)	
Cc1ccc(C(=O)/C=C(\O)C(=O)NC23CC4CC(CC(C4)C2)C3)cc1	> 10 µM (inactive)	> 10 µM (inactive)	> 10 µM (inactive)		> 10 µM (inactive)		6.7 µM (inactive)	8.61 µM (inactive)		> 10 µM (inactive)				4.25 µM (inactive)	9.79 µM (inactive)		> 10 µM (inactive)	8.71 µM (inactive)	> 10 µM (inactive)	
CC(CCc1ccc2c(c1)c(N)c1ccc(N)cc1[n+]2[O-])CC(C)(C)C (stereo not drawn)	1.75 µM (inactive)	1.83 µM (inactive)	1.68 µM (inactive)	0.597 µM (active)		1.73 µM (inactive)	1.83 µM (inactive)	1.92 µM (inactive)	1.93 µM (inactive)	1.67 µM (inactive)	1.77 µM (inactive)	8.95 µM (inactive)	1.89 µM (inactive)	1.3 µM (inactive)		1.93 µM (inactive)	1.47 µM (inactive)		1.99 µM (inactive)	

— ChEMBL document CHEMBL1201862, “PubChem BioAssay data set” (2004)
